# Patent publication US20250206761A1, “HALOINDOLE MACROCYCLIC COMPOUNDS FOR THE TREATMENT OF CANCER” (Hoffmann-La Roche Inc., priority 2022, published 2025)
# pIC50: −log10 of the molar value.
# Tests used:
# SW620 (ATCC-CCL-227) = assay: Cell viability assay, G12V (SW620); type: cell-based, human; conditions: Homo sapiens, SW-620; KRAS cell viability, SW620, 72 hrs, Cell Counting Kit-8
# How it was run: (§1)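 IC50 derived by 4-parameter sigmoidal fit of CCK-8 signal (OD450−OD650, 2 h development) after 72 h compound exposure in 0.5% DMSO. Seeding density was 5,000 cells/well for NCI-H358 and 2,000 cells/well for AGS and SW620, plated overnight before dosing.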
# [1] = system: NCI-H358 (ATCC-CRL5807) cells; assay: Cell viability assay, G12C (NCI-H358); type: cell-based, human; conditions: Homo sapiens; KRAS cell viability, NCI-H358, 72 hrs, Cell Counting Kit-8
# How it was run: as §1
# [2] = system: phosphorylation of ERK, KRAS G12V in SW620; assay: pERK inhibition assay, KRAS G12V; type: cell-based, human; conditions: Homo sapiens, SW-620, SW620, 4 hours
# How it was run: (§2)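 Cells in RPMI-1640 with 10% FBS were plated overnight (NCJ-H358 30,000, AGS 20,000, SW620 30,000 cells/well), then exposed to compounds in 0.5% DMSO for 4 h. Fixed, methanol-permeabilized cells were probed for pERK by HRP-based in-cell ELISA with TMB, OD450; IC50 from 4-parameter sigmoidal fit.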
# [3] = molecular target: KRAS G12D binding to BRAF (Homo sapiens (Human), UniProt P01116+P62937, G12D); assay: KRAS-BRAF with CYPA (500 nM) interaction assay (TR-FRET), G12D; type: biochemical
# [4] = system: phosphorylation of ERK, KRAS G12C in NCJ-H358 cells; assay: pERK inhibition assay, KRAS G12C; type: cell-based, human; conditions: Homo sapiens, 4 hours
# How it was run: as §2
# [5] = system: AGS (ATCC-CRL-1739) cells; assay: Cell viability assay, G12D (AGS); type: cell-based, human; conditions: Homo sapiens, KRAS cell viability, 72 hrs, Cell Counting Kit-8
# How it was run: as §1
# Chain of KRAS G12D binding to BRAF (P01116-2 other isoform, or with tags, fused parts or gaps G12D): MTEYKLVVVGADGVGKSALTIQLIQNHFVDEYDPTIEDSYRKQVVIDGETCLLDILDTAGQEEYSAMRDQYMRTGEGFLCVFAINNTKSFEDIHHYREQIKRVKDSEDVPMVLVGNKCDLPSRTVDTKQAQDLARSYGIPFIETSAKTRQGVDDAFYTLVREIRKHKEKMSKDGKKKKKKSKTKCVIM
# Chain of KRAS G12D binding to BRAF (P62937 whole entry): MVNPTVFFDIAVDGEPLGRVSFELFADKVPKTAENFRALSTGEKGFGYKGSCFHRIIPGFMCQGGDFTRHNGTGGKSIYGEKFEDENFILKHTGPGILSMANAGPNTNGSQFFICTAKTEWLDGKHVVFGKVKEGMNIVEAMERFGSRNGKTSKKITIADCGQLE
compound,measurement,setting,value
"CO[C@@H](C)c1ncc(N2CCN(C)CC2)cc1-c1c2c3cc(c(F)cc3n1CC(F)(F)F)-c1csc(n1)C[C@H](NC(=O)[C@H](C(C)C)N1CCCC3(CN(C(=O)[C@H](F)Cl)C3)C1=O)C(=O)N1CCC[C@H](N1)C(=O)OCC(C)(C)C2 (atropisomer, axis not shown; (M)) [Example 11, (2S)-2-[2-[(2R)-2-chloro-2-fluoro-acetyl]-5-oxo-2,6-diazaspiro[3.5]nonan-6-yl]-N-[(7S,13S)-24-fluoro-(20M)-20-[2-[(1S)-1-methoxyethyl]-5-(4-methylpiperazin-1-yl)-3-pyridyl]-17,17-dimethyl-8,14-dioxo-21-(2,2,2-trifluoroethyl)-15-oxa-4-thia-9,21,27,28-tetrazapentacyclo[17.5.2.1^2,5.1^9,13.0^22,26]octacosa-1(25),2,5(28),19,22(26),23-hexaen-7-yl]-3-methyl-butanamide]",pIC50,SW620 (ATCC-CCL-227),7.54
same,pIC50,[1],> 9.00
same,pIC50,[2],7.66
same,pIC50,[3],< 5.00
same,pIC50,[4],> 9.00
same,pIC50,[5],5.73
"CO[C@@H](C)c1ncc(N2CCN(C)CC2)cc1-c1c2c3c(F)c(ccc3n1CC(F)(F)F)-c1csc(n1)C[C@H](NC(=O)[C@H](C(C)C)N1CCCC3(CCN(C(=O)[C@H](F)Cl)CC3)C1=O)C(=O)N1CCC[C@H](N1)C(=O)OCC(C)(C)C2 (atropisomer, axis not shown; (M)) [Example 20, (2S)-2-[9-[(2R)-2-chloro-2-fluoro-acetyl]-1-oxo-2,9-diazaspiro[5.5]undecan-2-yl]-N-[(7S,13S)-25-fluoro-(20M)-20-[2-[(1S)-1-methoxyethyl]-5-(4-methylpiperazin-1-yl)-3-pyridyl]-17,17-dimethyl-8,14-dioxo-21-(2,2,2-trifluoroethyl)-15-oxa-4-thia-9,21,27,28-tetrazapentacyclo[17.5.2.1^2,5.1^9,13.0^22,26]octacosa-1(25),2,5(28),19,22(26),23-hexaen-7-yl]-3-methyl-butanamide]",pIC50,SW620 (ATCC-CCL-227),7.18
same,pIC50,[1],8.52
same,pIC50,[2],7.14
same,pIC50,[3],5.91
same,pIC50,[4],8.30
same,pIC50,[5],6.13
"CCn1c(-c2cc(N3CCN(CC(F)(F)F)CC3)cnc2[C@H](C)OC)c2c3cc(c(F)cc31)-c1csc(n1)C[C@H](NC(=O)[C@H](C(C)C)N1CCC3(CN(C(=O)[C@H](F)Cl)C3)C1=O)C(=O)N1CCC[C@H](N1)C(=O)OCC(C)(C)C2 (atropisomer, axis not shown; (M)) [Example 37, (2S)-2-[2-[(2R)-2-chloro-2-fluoro-acetyl]-5-oxo-2,6-diazaspiro[3.4]octan-6-yl]-N-[(7S,13S)-21-ethyl-24-fluoro-(20M)-20-[2-[(1S)-1-methoxyethyl]-5-[4-(2,2,2-trifluoroethyl)piperazin-1-yl]-3-pyridyl]-17,17-dimethyl-8,14-dioxo-15-oxa-4-thia-9,21,27,28-tetrazapentacyclo[17.5.2.1^2,5.1^9,13.0^22,26]octacosa-1(25),2,5(28),19,22(26),23-hexaen-7-yl]-3-methyl-butanamide]",pIC50,SW620 (ATCC-CCL-227),6.94
same,pIC50,[1],> 9.00
same,pIC50,[2],7.68
same,pIC50,[3],6.02
same,pIC50,[4],8.52
same,pIC50,[5],6.80
"CCn1c(-c2cc(N3CCN(CC(F)(F)F)CC3)cnc2[C@H](C)OC)c2c3cc(c(F)cc31)-c1csc(n1)C[C@H](NC(=O)[C@H](C(C)C)N(C)C(=O)C1(F)CCN(C(=O)[C@H](F)Cl)CC1)C(=O)N1CCC[C@H](N1)C(=O)OCC(C)(C)C2 (atropisomer, axis not shown; (M)) [Example 49, 1-[(2R)-2-chloro-2-fluoro-acetyl]-N-[(1S)-1-[[(7S,13S)-21-ethyl-24-fluoro-(20M)-20-[2-[(1S)-1-methoxyethyl]-5-[4-(2,2,2-trifluoroethyl)piperazin-1-yl]-3-pyridyl]-17,17-dimethyl-8,14-dioxo-15-oxa-4-thia-9,21,27,28-tetrazapentacyclo[17.5.2.1^2,5.1^9,13.0^22,26]octacosa-1(25),2,5(28),19,22(26),23-hexaen-7-yl]carbamoyl]-2-methyl-propyl]-4-fluoro-N-methyl-piperidine-4-carboxamide]",pIC50,SW620 (ATCC-CCL-227),7.38
same,pIC50,[1],> 9.00
same,pIC50,[2],7.70
same,pIC50,[3],6.35
same,pIC50,[4],8.52
same,pIC50,[5],7.14
"CCn1c(-c2cc(N3CCOCC3)cnc2[C@H](C)OC)c2c3cc(c(F)cc31)-c1csc(n1)C[C@H](NC(=O)[C@H](C(C)C)N1CC[C@]3(CCN(C(=O)[C@H](F)Cl)C3)C1=O)C(=O)N1CCC[C@H](N1)C(=O)OCC(C)(C)C2 (atropisomer, axis not shown; (M)) [Example 51, (2S)-2-[(5S)-7-[(2R)-2-chloro-2-fluoro-acetyl]-1-oxo-2,7-diazaspiro[4.4]nonan-2-yl]-N-[(7S,13S)-21-ethyl-24-fluoro-(20M)-20-[2-[(1S)-1-methoxyethyl]-5-morpholino-3-pyridyl]-17,17-dimethyl-8,14-dioxo-15-oxa-4-thia-9,21,27,28-tetrazapentacyclo[17.5.2.1^2,5.1^9,13.0^22,26]octacosa-1(25),2,5(28),19,22(26),23-hexaen-7-yl]-3-methyl-butanamide]",pIC50,SW620 (ATCC-CCL-227),7.28
same,pIC50,[1],> 9.00
same,pIC50,[2],7.24
same,pIC50,[3],< 5.00
same,pIC50,[4],8.70
same,pIC50,[5],5.60
"CCn1c(-c2cc(N3CCOCC3)cnc2[C@H](C)OC)c2c3cc(c(F)cc31)-c1csc(n1)C[C@H](NC(=O)[C@H](C(C)C)N1CCC3(CN(C(=O)[C@H](F)Cl)C3)C1=O)C(=O)N1CCC[C@H](N1)C(=O)OCC(C)(C)C2 (atropisomer, axis not shown; (M)) [Example 52, (2S)-2-[2-[(2R)-2-chloro-2-fluoro-acetyl]-5-oxo-2,6-diazaspiro[3.4]octan-6-yl]-N-[(7S,13S)-21-ethyl-24-fluoro-(20M)-20-[2-[(1S)-1-methoxyethyl]-5-morpholino-3-pyridyl]-17,17-dimethyl-8,14-dioxo-15-oxa-4-thia-9,21,27,28-tetrazapentacyclo[17.5.2.1^2,5.1^9,13.0^22,26]octacosa-1(25),2,5(28),19,22(26),23-hexaen-7-yl]-3-methyl-butanamide]",pIC50,SW620 (ATCC-CCL-227),6.71
same,pIC50,[1],> 9.00
same,pIC50,[2],7.24
same,pIC50,[3],5.69
same,pIC50,[4],8.40
same,pIC50,[5],5.33
"CCn1c(-c2cc(N3CCOCC3)cnc2[C@H](C)OC)c2c3cc(c(F)cc31)-c1csc(n1)C[C@H](NC(=O)[C@H](C(C)C)N1CC[C@@]3(CCN(C(=O)[C@H](F)Cl)C3)C1=O)C(=O)N1CCC[C@H](N1)C(=O)OCC(C)(C)C2 (atropisomer, axis not shown; (M)) [Example 53, (2S)-2-[(5R)-7-[(2R)-2-chloro-2-fluoro-acetyl]-1-oxo-2,7-diazaspiro[4.4]nonan-2-yl]-N-[(7S,13S)-21-ethyl-24-fluoro-(20M)-20-[2-[(1S)-1-methoxyethyl]-5-morpholino-3-pyridyl]-17,17-dimethyl-8,14-dioxo-15-oxa-4-thia-9,21,27,28-tetrazapentacyclo[17.5.2.1^2,5.1^9,13.0^22,26]octacosa-1(25),2,5(28),19,22(26),23-hexaen-7-yl]-3-methyl-butanamide]",pIC50,SW620 (ATCC-CCL-227),6.03
same,pIC50,[1],> 9.00
same,pIC50,[2],7.21
same,pIC50,[3],< 5.00
same,pIC50,[4],8.52
same,pIC50,[5],5.88
